Here are results for 1 compound from patent US20030187267A1, “Novel 1,2,3,4-tetrahydroisoquinoline, their preparation method and their use as fungicides” (priority 2000, published 2003).

The test system of the assay is Candida Albicans 44858. Briefly: Antifungal activity in mice infected intravenously with Candida Albicans 44858 (dead mice counted). As to conditions: female mice, 106 CFU per mouse into the tail vein. The class given is in vivo. As for the experimental part: Antifungal activity of the product of Example 1 or product P.
Female mice were used weighing 18 to 22 g. A quantity of Candida Albicans 44858 at a rate of 10^6 CFU per mouse (CFU: colony forming unit) is administered into the vein of the tail. The mice are separated into 5 batches of 5 mice and they are treated as follows:
group 1: the mice are treated with product P 25 mg/kg by oral route
group 2: the mice are treated with product P by intraperitoneal route at a rate of 25 mg/kg
group 3: the mice are treated with fluconazole (25 mg/kg by oral route).
group 4: the mice are treated with fluconazole (25 mg/kg by intraperitoneal route).
group 5: the mice receive no antifungal treatment.
For a period of 22 days, the dead mice are counted.

Each structure is given as a SMILES string.

In the case of `CCC(C)n1ncn(-c2ccc(/C=C/CN3CCc4cc(OC[C@H]5CO[C@](Cn6ccnc6)(c6ccc(Cl)cc6Cl)O5)ccc4C3)cc2)c1=O` (relative stereo) [Example 1, 2,4-dihydro-4-[4-[3-[6-[[(cis)-2-(2,4-dichlorophenyl)-2-(1H-imidazol-1-ylmethyl)-1,3-dioxolan-4-yl]-methoxy]-1,2,3,4-tetrahydro-2-isoquinolinyl]-1(E)-propenyl]-phenyl]-2-(1-methylpropyl)-3H-1,2,4-triazol-3-one.], the “Antifungal activity (dead mice counted for a period of 22 days)” value is reported as “excellent activity” (25 mg/kg by intraperitoneal route 1 hour after infection) and “excellent activity” (25 mg/kg by oral route 1 hour after infection).
